Measurements taken from ChEMBL document CHEMBL3856210, “Discovery of in vitro antitubercular agents through in silico ligand-based approaches” (Eur J Med Chem, 2016).
Values after ≈ are worked out from the molar mass of the structure shown.

Experiment: Antitubercular activity against Mycobacterium tuberculosis H37Ra ATCC 25177 after 21 days by agar dilution method
Type: functional
Details: ATCC 25177, 504 h

| SMILES | MIC |
| --- | --- |
| CCc1c(CN2CCN(C)CC2)cc(-c2ccc(Cl)cc2)n1-c1ccc(Cl)cc1 | 2 µg/mL (≈ 4.67 µM) |
| CCc1c(CN2CCSCC2)cc(-c2ccccc2)n1-c1ccccc1 | 2 µg/mL (≈ 5.52 µM) |
| CNCCC/C(=C1\C(=O)N(c2ccc(Cl)cc2)N=C1C)c1ccc(Cl)cc1 | 64 µg/mL (≈ 159 µM) |
| CC1=NN(c2ccc(Cl)cc2)C(=O)/C1=C\N1CCN(CCO)CC1 | 64 µg/mL (≈ 183 µM) |
| CC(C)c1[nH]n(-c2ccccc2)c(=O)c1C(=O)c1ccc(Cl)cc1 | 64 µg/mL (≈ 188 µM) |
| CSc1ccccc1-n1c(-c2ccc(F)cc2)cc(CN2CCSCC2)c1C | 8 µg/mL (≈ 19.4 µM) |
| CCCc1cc(=O)n2nc(C)c(-c3ccc(Cl)cc3)c2[nH]1 | 8 µg/mL (≈ 26.5 µM) |
| Cc1nn(-c2ccccc2)c(O)c1C(=O)c1ccc([N+](=O)[O-])cc1 | > 100 µg/mL |
| COC(=O)C1=C(C)N(Cc2ccc(C)cc2)C(=O)/C1=C\c1ccc(C)cc1OC | 32 µg/mL (≈ 81.7 µM) |
| O=C(COc1ccccc1)OC(Cn1ccnc1)c1ccc(Cl)cc1 (racemic) | 64 µg/mL (≈ 179 µM) |
| O=C(Nc1ccc(Sc2ccc([N+](=O)[O-])cc2)cc1)O[C@H](Cn1ccnc1)c1ccc(Cl)cc1 | 16 µg/mL (≈ 32.3 µM) |
| CCCc1cc(=O)n2nc(C)c(-c3ccc(OC)c(OC)c3)c2[nH]1 | 64 µg/mL (≈ 195 µM) |
| O=C1S/C(=C\c2ccc(-c3cccc(Cl)c3Cl)o2)C(=O)N1c1ccc(Cl)cc1 | 64 µg/mL (≈ 142 µM) |
| COc1ccc(C(CNS(=O)(=O)N2CCCC2)c2c[nH]c3ccccc23)cc1 (configuration not stated) | 32 µg/mL (≈ 80.1 µM) |
| O=C(OC(Cn1cccc1)c1ccc(Cl)cc1)N1CCN(c2ccc(Cl)c(Cl)c2)CC1 (racemic) | 64 µg/mL (≈ 134 µM) |
| CCC/N=C(\c1ccc(Cl)cc1)c1c(C)nn(-c2ccc(Cl)cc2)c1O | > 100 µg/mL |
| Cc1cc(=O)n2nc(C)c(-c3ccc(Cl)cc3)c2[nH]1 | 32 µg/mL (≈ 117 µM) |
| Cc1c(C(=O)c2ccc(Cl)cc2)c(=O)n(-c2ccccc2)n1Cc1ccc([N+](=O)[O-])cc1 | > 32 µg/mL |
| COCc1nn2c(=O)cc(CCc3c(C)n[nH]c3C)[nH]c2c1-c1ccc(Cl)cc1 | 16 µg/mL (≈ 38.8 µM) |
| CC1=NN(c2ccc(Cl)cc2)C(=O)/C1=C(/c1ccc(Cl)cc1)N1CCOCC1 | 4 µg/mL (≈ 9.61 µM) |
| COCc1cc(=O)n2nc(C)c(-c3ccc(Cl)cc3)c2[nH]1 | 16 µg/mL (≈ 52.7 µM) |
| Cc1nn2c(=O)c3c([nH]c2c1-c1ccc(Cl)cc1)CCC3 | 8 µg/mL (≈ 26.7 µM) |
| Cc1c(C(=O)c2ccc(Cl)cc2)c(=O)n(-c2ccc(Cl)cc2)n1Cc1ccccc1 | 16 µg/mL (≈ 36.6 µM) |
| Cc1nn(-c2ccc(Cl)cc2)c(O)c1/C(=N/OCc1ccccc1)c1ccc(Cl)cc1 | > 100 µg/mL |
| O=S(=O)(Nc1nc2ccccc2[nH]1)c1ccc(Cl)cc1 | 32 µg/mL (≈ 104 µM) |
| CC1=NN(c2ccc(Cl)cc2)C(=O)/C1=C(/c1ccc(Cl)cc1)N1CCSCC1 | 8 µg/mL (≈ 18.5 µM) |

| SMILES | MIC |
| --- | --- |
| C=CCn1cnc2sc(C)c(-c3ccc(Cl)cc3)c2c1=O | 32 µg/mL (≈ 101 µM) |
| Cc1cc(/C=N\OCc2cccc(F)c2)c(C)n1-c1ccc(F)cc1 | > 100 µg/mL |
| Cc1nn(C(=O)c2cccc([N+](=O)[O-])c2)c(C)c1Sc1ccc(Cl)cc1 | 32 µg/mL (≈ 82.5 µM) |
| Cc1c(C(=O)c2ccc(Cl)cc2)c(=O)n(-c2ccccc2)n1Cc1ccc(F)cc1 | 32 µg/mL (≈ 76 µM) |
| O=C(O[C@H](Cn1ccnc1)c1ccc(F)cc1)N1CCN(c2ccc([N+](=O)[O-])cc2)CC1 | 32 µg/mL (≈ 72.8 µM) |
| CC1=NN(c2ccc(Cl)cc2)C(=O)/C1=C(/c1ccc(Cl)cc1)N1CCC(C)CC1 | 64 µg/mL (≈ 149 µM) |
| COc1ccc(-n2c(-c3ccc(Br)cc3)cc3c2CC(C)(C)CC3=O)c(OC)c1 | 64 µg/mL (≈ 141 µM) |
| CC1=NN(c2ccc(Cl)cc2)C(=O)/C1=C(/c1ccc(Cl)cc1)N1CCN(C)CC1 | 4 µg/mL (≈ 9.32 µM) |
| CC1=NN(c2ccc(Cl)cc2)C(=O)/C1=C\N1CCN(c2ccccc2)CC1 | 64 µg/mL (≈ 168 µM) |
| CC1=NN(c2ccccc2)C(=O)/C1=C(/c1ccc(Cl)cc1)N1CCSCC1 | 8 µg/mL (≈ 20.1 µM) |
| Cc1nn(-c2ccc(Cl)cc2)c(O)c1C(=O)c1ccccc1 | 25 µg/mL (≈ 79.9 µM) |
| CCCOc1ccc2c(c1)sc1ncc(NC(=O)c3ccc(Cl)cc3)c(=O)n12 | 32 µg/mL (≈ 77.3 µM) |
| O=C(OC(Cn1ccnc1)c1ccc(Cl)cc1)N1CCN(c2ccc(Cl)c(Cl)c2)CC1 (racemic) | 4 µg/mL (≈ 8.34 µM) |
| CN(C(=O)c1cccc(Cl)c1)c1nc(-c2ccccc2)cs1 | 64 µg/mL (≈ 195 µM) |
| CC1=NN(c2ccccc2)C(=O)/C1=C(/c1ccc(Cl)cc1)N1CCOCC1 | 16 µg/mL (≈ 41.9 µM) |
| CSc1ccc(-n2c(-c3ccc(C)cc3)cc(CN3CCSCC3)c2C)cc1 | 1 µg/mL (≈ 2.45 µM) |
| O=C(O[C@H](Cn1ccnc1)c1ccc([N+](=O)[O-])cc1)N1CCN(c2ccc(Cl)c(Cl)c2)CC1 | 16 µg/mL (≈ 32.6 µM) |
| Cc1[nH]n(-c2ccc(Cl)cc2)c(=O)c1C(=O)c1ccc(Cl)cc1 | 6.25 µg/mL (≈ 18 µM) |
| Cc1[nH]n(-c2ccc(F)cc2)c(=O)c1C(=O)c1ccc(Cl)cc1 | 12.5 µg/mL (≈ 37.8 µM) |
| O=C(O[C@H](Cn1ccnc1)c1ccc(-c2ccccc2)cc1)N1CCN(c2ccc(Cl)c(Cl)c2)CC1 | 16 µg/mL (≈ 30.7 µM) |
| Cc1ccc(C(=O)Oc2c(C(=O)c3ccc(C)cc3)c(C)nn2-c2ccccc2)cc1 | > 100 µg/mL |
| O=C1C/C(=N\c2ccc(Cl)cc2)SC1Cc1ccc(Cl)cc1 (configuration not stated) | 32 µg/mL (≈ 91.4 µM) |
| CC1=NN(c2ccc(Cl)cc2)C(=O)/C1=C(/c1ccc(Cl)cc1)N(C)C | 16 µg/mL (≈ 42.7 µM) |
| Cc1cc(/C=N\OCc2ccc([N+](=O)[O-])cc2)c(C)n1-c1ccc(F)cc1 | > 100 µg/mL |
| Cc1nn(-c2ccc(F)cc2)c(OC(=O)c2ccccc2)c1C(=O)c1ccccc1 | 25 µg/mL (≈ 62.4 µM) |
| Cc1nn2c(=O)cc(Cc3ccsc3)[nH]c2c1-c1ccc(Cl)cc1 | 32 µg/mL (≈ 89.9 µM) |
